Values joined by “and” are separate entries in the source; they are usually repeats but may differ in a detail not shown here. Equal values may be shown once.
System: 496974-208-R-J2-PDC complex spheroids, growth % test/control
Assay: Anticancer human tumor 496974-208-R-J2-PDC patient-derived pancreatic carcinoma cell line growth inhibition [CLK]
Details: for viability, T/C: stronger effect = lower value
Summary of the method: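 Multi-cell-type spheroids combined patient-derived tumor cells with HUVEC endothelial cells and human mesenchymal stem cells. Paired agents were dosed in half-log steps down from about clinical Cmax, or from 10 microM where Cmax was unknown.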

[1] = curve of first compound, second compound 0.0316 µM
[2] = curve of first compound, second compound 0.1 µM
[3] = curve of first compound, second compound 0.316 µM
[4] = curve of first compound, second compound 1 µM
[5] = curve of first compound, second compound 3.16 µM
[6] = curve of first compound, second compound 10 µM
[7] = second compound 0.0316 µM, first compound 0.0316 µM
[8] = second compound 0.0316 µM, first compound 0.1 µM
[9] = second compound 0.0316 µM, first compound 0.316 µM
[10] = second compound 0.0316 µM, first compound 1 µM
[11] = second compound 0.1 µM, first compound 0.0316 µM
[12] = second compound 0.1 µM, first compound 0.1 µM
[13] = second compound 0.1 µM, first compound 0.316 µM
[14] = second compound 0.1 µM, first compound 1 µM
[15] = second compound 0.316 µM, first compound 0.0316 µM
[16] = second compound 0.316 µM, first compound 0.1 µM
[17] = second compound 0.316 µM, first compound 0.316 µM
[18] = second compound 0.316 µM, first compound 1 µM
[19] = second compound 1 µM, first compound 0.0316 µM
[20] = second compound 1 µM, first compound 0.1 µM
[21] = second compound 1 µM, first compound 0.316 µM
[22] = second compound 1 µM, first compound 1 µM
[23] = second compound 3.16 µM, first compound 0.0316 µM
[24] = second compound 3.16 µM, first compound 0.1 µM
[25] = second compound 3.16 µM, first compound 0.316 µM
[26] = second compound 3.16 µM, first compound 1 µM
[27] = second compound 10 µM, first compound 0.0316 µM
[28] = second compound 10 µM, first compound 0.1 µM
[29] = second compound 10 µM, first compound 0.316 µM
[30] = second compound 10 µM, first compound 1 µM
[31] = second compound 0.0316 µM, first compound 3.16 µM
[32] = second compound 0.0316 µM, first compound 10 µM
[33] = second compound 0.1 µM, first compound 3.16 µM
[34] = second compound 0.1 µM, first compound 10 µM
[35] = second compound 0.316 µM, first compound 3.16 µM
[36] = second compound 0.316 µM, first compound 10 µM
[37] = second compound 1 µM, first compound 3.16 µM
[38] = second compound 1 µM, first compound 10 µM
[39] = second compound 3.16 µM, first compound 3.16 µM
[40] = second compound 3.16 µM, first compound 10 µM
[41] = second compound 10 µM, first compound 3.16 µM
[42] = second compound 10 µM, first compound 10 µM
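Further: spheroids exposed to the drugs for 7 days before readout.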
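Wherever viability, T/C is given: 100% = DMSO vehicle control wells.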

CCc1c2c(nc3ccc(O)cc13)-c1cc3c(c(=O)n1C2)COC(=O)[C@]3(O)CC + CN1CCN(c2cc(C(=O)Nc3cc4cc(-c5cnn(C)c5)ccc4cn3)ccn2)CC1
IC50 [1]: 7.79 nM | IC50 [2]: < 3.16 nM | IC50 [3]: < 3.16 nM | IC50 [4]: < 3.16 nM | IC50 [5]: < 3.16 nM | IC50 [6]: < 3.16 nM | viability, T/C (second compound 0.0316 µM, first compound 0.00316 µM): 62.2% | viability, T/C (second compound 0.0316 µM, first compound 0.01 µM): 47.5% | viability, T/C [7]: 26.7% | viability, T/C [8]: 14.5% | viability, T/C [9]: 6.46% | viability, T/C [10]: 1.65% | viability, T/C (second compound 0.1 µM, first compound 0.00316 µM): 49.3% | viability, T/C (second compound 0.1 µM, first compound 0.01 µM): 38.7% | viability, T/C [11]: 23.3% | viability, T/C [12]: 10.7% | viability, T/C [13]: 3.35% | viability, T/C [14]: 0.91% | viability, T/C (second compound 0.316 µM, first compound 0.00316 µM): 6.81% | viability, T/C (second compound 0.316 µM, first compound 0.01 µM): 5.74% | viability, T/C [15]: 3.64% | viability, T/C [16]: 2% | viability, T/C [17]: 0.48% | viability, T/C [18]: 1.92% | viability, T/C (second compound 1 µM, first compound 0.00316 µM): 0.35% | viability, T/C (second compound 1 µM, first compound 0.01 µM): 0.69% | viability, T/C [19]: 3.07% | viability, T/C [20]: 0.44% | viability, T/C [21]: 0.26% | viability, T/C [22]: 1.23% | viability, T/C (second compound 3.16 µM, first compound 0.00316 µM): 0.46% | viability, T/C (second compound 3.16 µM, first compound 0.01 µM): 0.62% | viability, T/C [23]: 1.9% | viability, T/C [24]: 0.34% | viability, T/C [25]: 0.73% | viability, T/C [26]: 0.29% | viability, T/C (second compound 10 µM, first compound 0.00316 µM): 0.14% | viability, T/C (second compound 10 µM, first compound 0.01 µM): 0.25% | viability, T/C [27]: 1.21% | viability, T/C [28]: 0.21% | viability, T/C [29]: 0.65% | viability, T/C [30]: 3.41%

CNC(=O)c1ccc(Nc2nc(OC3CCCC3)c3c(-c4ccc5nc(C)oc5c4)c[nH]c3n2)c(OC)c1
viability, T/C (compound 0.0316 µM): 97.8% [middle of 7 runs] | viability, T/C (compound 0.1 µM): 85.7% [middle of 10 runs] | viability, T/C (compound 0.316 µM): 78.1% [middle of 10 runs] | viability, T/C (compound 1 µM): 70.6% [middle of 10 runs] | viability, T/C (compound 3.16 µM): 62.4% [middle of 10 runs] | viability, T/C (compound 10 µM): 57.3% [middle of 10 runs] | IC50 (compound alone, run of 09/19/2023): > 10000 nM

Nc1ccn(C2OC(CO)C(O)C2(F)F)c(=O)n1 (stereo not given) + CN1CCN(c2cc(C(=O)Nc3cc4cc(-c5cnn(C)c5)ccc4cn3)ccn2)CC1
IC50 [1]: 959 nM | IC50 [2]: 259 nM | IC50 [3]: < 31.6 nM | IC50 [4]: < 31.6 nM | IC50 [5]: < 31.6 nM | IC50 [6]: < 31.6 nM | viability, T/C [7]: 90.8% | viability, T/C [8]: 76.9% | viability, T/C [9]: 62.3% | viability, T/C [10]: 44% | viability, T/C [31]: 48.2% | viability, T/C [32]: 50% | viability, T/C [11]: 76.3% | viability, T/C [12]: 57.8% | viability, T/C [13]: 50.3% | viability, T/C [14]: 40.6% | viability, T/C [33]: 38.6% | viability, T/C [34]: 38.5% | viability, T/C [15]: 5.11% | viability, T/C [16]: 5.63% | viability, T/C [17]: 6.71% | viability, T/C [18]: 5.91% | viability, T/C [35]: 5.91% | viability, T/C [36]: 4.9% | viability, T/C [19]: 0.42% | viability, T/C [20]: 0.5% | viability, T/C [21]: 1.35% | viability, T/C [22]: 0.4% | viability, T/C [37]: 2.61% | viability, T/C [38]: 0.41% | viability, T/C [23]: 0.53% | viability, T/C [24]: 0.7% | viability, T/C [25]: 0.57% | viability, T/C [26]: 0.47% | viability, T/C [39]: 0.44% | viability, T/C [40]: 1.78% | viability, T/C [27]: 0.28% | viability, T/C [28]: 1.23% | viability, T/C [29]: 1.72% | viability, T/C [30]: 0.25% | viability, T/C [41]: 2.65% | viability, T/C [42]: 0.29%

C#Cc1c(F)ccc2cc(O)cc(-c3ncc4c(N5CC6CCC(C5)N6)nc(OCC56CCCN5CC(F)C6)nc4c3F)c12 (stereo not given) + CNC(=O)c1ccc(Nc2nc(OC3CCCC3)c3c(-c4ccc5nc(C)oc5c4)c[nH]c3n2)c(OC)c1
IC50 [1]: 204 nM | IC50 [2]: 33.5 nM | IC50 [3]: < 31.6 nM | IC50 [4]: < 31.6 nM | IC50 [5]: < 31.6 nM | IC50 [6]: < 31.6 nM | viability, T/C [7]: 62.4% | viability, T/C [8]: 56.8% | viability, T/C [9]: 46.1% | viability, T/C [10]: 42.2% | viability, T/C [31]: 42.9% | viability, T/C [32]: 41% | viability, T/C [11]: 57.7% | viability, T/C [12]: 46.7% | viability, T/C [13]: 35% | viability, T/C [14]: 37.2% | viability, T/C [33]: 34.6% | viability, T/C [34]: 43.1% | viability, T/C [15]: 45.2% | viability, T/C [16]: 40.2% | viability, T/C [17]: 37.2% | viability, T/C [18]: 33% | viability, T/C [35]: 33.5% | viability, T/C [36]: 31% | viability, T/C [19]: 37.8% | viability, T/C [20]: 32.5% | viability, T/C [21]: 31.2% | viability, T/C [22]: 28.1% | viability, T/C [37]: 31.3% | viability, T/C [38]: 28.4% | viability, T/C [23]: 33.5% | viability, T/C [24]: 30.4% | viability, T/C [25]: 27.2% | viability, T/C [26]: 25.8% | viability, T/C [39]: 27.6% | viability, T/C [40]: 23.8% | viability, T/C [27]: 30.1% | viability, T/C [28]: 27.9% | viability, T/C [29]: 27% | viability, T/C [30]: 22.8% | viability, T/C [41]: 23.5% | viability, T/C [42]: 21.2%

NC(=O)C(=Cn1cnc(-c2cc(C(F)(F)F)cc(C(F)(F)F)c2)n1)c1cncnc1
viability, T/C (compound 0.00949 µM): 97.8% and 78.4% | viability, T/C (compound 0.03 µM): 71.3% and 68.7% | viability, T/C (compound 0.0949 µM): 57.4% and 59.5% | viability, T/C (compound 0.3 µM): 29.5% and 32% | viability, T/C (compound 0.949 µM): 16% and 23.8% | viability, T/C (compound 3 µM): 11.6% and 13.4% | IC50 (curve of compound): 106 nM and 135 nM

Reference: PubChem BioAssay AID2060615 (Molecular Pharmacology Branch, DTP, NCI, 2025)
